The values that follow come from patent US9738902B2, “Modified PYR/PYL receptors activated by ligands” (priority 2013, dated 2017).

Assay [1] deals with PYR1^MANDI transgenic plants (E15, E16, F29, F34). Briefly: progressive water loss regime (drought). The format is in vivo, Arabidopsis. To be noted: 2 μM mandipropamid, repeated 4 days later; day 11. The protocol: Treatment of plants with ABA delays water loss and additionally improves the ability of plants to recover from drought. We therefore examined the behavior of wild type, 35S::GFP-PYR and 4 homozygous PYR1^MANDI expressing transgenic plants (E15, E16, F29 and F34) during a progressive water loss regime. […] Plants were grown for three weeks in pots containing the same mass of soil and receiving the same amount of water at each watering. At three weeks after germination, regular watering of the plants was ceased and plants were treated with mock or 2 μM mandipropamid. These treatments were repeated 4 days later. Plants were photographed at 1, 10 and 11 days after initiation of water deprivation. As is evident from FIG. 6, by day 10 mock treated plants display evidence of water stress as indicated by collapsed leaves, by day 11 all mock treated plants have experienced severe desiccation. […] This is also observed for wild type and 35S::GFP-PYR plants treated with mandipropamid at day 10. […] This is in contrast to wild type and 35S::GFP-PYR1 control plants treated with mandipropamid and all mock treated lines. Thus, mandipropamid is able to improve drought stress tolerance in PYR1^MANDI expressing transgenic plants. The beneficial effects of mandipropamid are restricted to PYR1^MANDI expressing transgenic plants.

Assay [2] relates to MDP1 and MDP2 transgenic lines (35S::PYR1^MANDI). Kind of assay: thermal imaging of leaf temperature. The class given is in vivo, Arabidopsis. To be noted: 1 μM mandipropamid, 24 hours after first application.
The subject of assay [3] is 35S::PYR1^MANDI lines MDP1, MDP2, MDP3. Kind of assay: seed germination assay, 250 nM mandipropamid. To be noted: 3 days post-stratification. The format is in vivo, Arabidopsis. The text has this: To further characterize the physiological effects of the PYR1^MANDI/mandipropamid interaction, we characterized three independently generated transgenic Arabidopsis lines in more detail. These lines, initially named E9, E16 and E31 are henceforth referred to as MPD1, MPD2 and MPD3. Each of these lines is homozygous for a single 35S::PYR1^MANDI insertion site and is the result of independent transformation events. We first used germination assays to characterize the relative mandipropamid sensitivity of these lines. Seeds for the transgenics and wild type control were surface sterilized with bleach and then stratified for 4 days at 4° C. on 0.7% agar petri plates containing ½ MS salts and 0.5% sucrose in addition to either 250 nM mandipropamid or a mock treatment of 0.1% DMSO (the carrier solvent). After stratification, the plates were transferred to a growth chamber operating on a 16-hour day length cycle. Seed germination was scored 3 days post-stratification. […] To more definitively assess the relative sensitivity of the MDP1 and MDP2 lines to mandipropamid, we conducted germination dose-response experiments (using the same procedure described above) and confirmed that the MDP1 line is more sensitive to mandipropamid than MDP2 (FIG. 7B).

Assay [4] concerns MDP1 and MDP2 transgenic genotypes. Kind of assay: root growth inhibition assay. To be noted: MDP1 and MDP2, 72 hours after transfer. The class given is in vivo, Arabidopsis. The source says:
(§1) Given the relatively high mandipropamid sensitivity of the MDP1 and MDP2 transgenic lines, these lines were subjected to further physiological characterization. One of ABA's physiological effects is to inhibit root growth. Mandipropamid should therefore inhibit root growth in the MDP1 and MDP2 transgenic lines, but not wild type, if it is successfully activating this ABA response. To test this, seeds of the wild type, PYR1-OX, MDP1 and MDP2 genotypes were surface sterilized in bleach and plated on to 0.7% agar petri plates containing ½ MS salts and 0.5% sucrose. After 4 days of stratification at 4° C., the plates were transferred to a growth chamber operating on a 16-hour day length cycle and allowed to germinate for 24 hours and then transferred to petri plates (0.7% agar containing ½ MS salts and 0.5% sucrose) supplemented with differing concentrations of mandipropamid. These plates were then grown vertically in a growth chamber operating on a 16-hour day length cycle. The amount of root growth after transfer was measured 72-hours later after transfer.

The next assay has as its system PYR1-OX. Briefly: root growth inhibition assay. The format is in vivo, Arabidopsis. As to conditions: 72 hours after transfer.
Description: as §1

A further assay concerns wild type. Kind of assay: root growth inhibition assay. The format is in vivo, Arabidopsis. To be noted: 72 hours after transfer.
Description: as §1

The test system of assay [5] is transgenic 35S::PYR1^MANDI tomato plants. Kind of assay: thermal imaging of leaf temperature. As to conditions: 10 μM mandipropamid, 24 hours post treatment. The class given is in vivo. The source says:
The core ABA response pathway is highly conserved and it is therefore expected that PYR1^MANDI should be able to activate ABA responses in response to mandipropamid in most land plants. To investigate if the physiological activity of PYR1^MANDI is functional in other species besides Arabidopsis we made transgenic 35S::PYR1^MANDI tomato. The same construct utilized for construction of Arabidopsis transgenics (described in Example 5) was modified to contain a kanamycin selection marker. Tomato was transformed by Agrobacterium-mediated transformation, which was conducted as described by Sun et al. (2006) with a few modifications. Surface sterilized tomato seeds (strain UC82B) were germinated on sterilized wet filter paper in a petridish. Cotyledons from 7-day old seedlings were excised and dipped into a suspension of Agrobacterium in MS medium containing 100 μM acetosyringone and 10 μM 2-mercaptoethanol for 10 minutes. Explants were then placed on co-cultivation medium containing MS salts, 3% sucrose, 0.3% Gelite and 1.5 mg/L zeatin. After 3 days of co-culture in darkness, the explants were transferred onto callus induction medium containing MS salts, 3% sucrose, 0.3% Gelite, 1.5 mg/L zeatin and 100 mg/L kanamycin and 125 mg/L carbenicillin. Explants were transferred to freshly prepared medium every 2 weeks. […]

Structures are written as SMILES.

For `C#CCOc1ccc(CCNC(=O)C(OCC#C)c2ccc(Cl)cc2)cc1OC` (centres unmarked) [Mandipropamid, mandipropamid], the “desiccation during water deprivation” value in assay [1] is on record as “not desiccated”. The leaf temperature result was “increased leaf temperature” in assay [2] and “increase in leaf temperature” in assay [5]. Besides, the seed germination entry was “near complete germination inhibition” in assay [3] (MDP1 seed, 250 nM mandipropamid) and “minimal sensitivity” in assay [3] (MDP3, 250 nM mandipropamid). The results for the root growth result (in assay [4]; in the assay with PYR1-OX; in the assay with wild type) were “inhibited”, “negligible inhibition” and “negligible inhibition”, respectively.
